Reference: US6551585B1, “Use of tumor necrosis factor as an adjuvant” (Genentech, Inc., priority 1987, dated 2003)
Marks after values point to notes of the source that are not given here.

Tests used:
[1] = tested on: cytotoxic T cells; assay: Development of cytotoxic T cells in 2237-cell immunized mice; format: in vivo
[2] = tested on: bovine serum albumin (BSA); assay: Serum antibody (IgG) against BSA by Elisa after BSA immunization; format: in vivo, C3H/HeN mice; details: for Production of antibody (IgG) against BSA: BSA 500 μg i.p. day 0 and second injection 100 μg, adjuvant at various doses, bled three days later, Elisa
Method: C3H/HeN mice were given an i.p. injection of bovine serum albumin using a suboptimal vaccine dose (500 μg/animal), which was administered by i.p. injection on day 0. Various doses of TNF-α, as an adjuvant, were administered 48 hours following a second injection of BSA at 100 μg/animal. The mice were bled three days later and the serum antibody levels as IgG were determined using routine Elisa techniques. The i.v. injection of maleic divinyl ether with an average molecular weight of 20,000 daltons was used as a positive control.

[3] = tested on: 2237 tumor cells (syngeneic fibrosarcoma); assay: Immunization with radiation killed 2237 tumor cells plus adjuvant, then footpad challenge with live 2237 cells; tumor volume by calipers; format: in vivo, C3H/HeN mice
From the text: C3H/HeN mice were immunized with 1×10^5 radiation killed 2237 tumor cells. The 2237 cell line is a moderately antigenic syngeneic fibrosarcoma obtained from s.c. growing tumors by collagenase dissociation. The donor tumor cells for use in tumor vaccine were irradiated with 10,000 R of gamma irradiation. Irradiation ultimately kills the cells but they are not immediately killed, indeed the cells may be able to undergo one or two additional divisions before a sufficient accumulation of chromosomal breaks or other abnormalities is obtained to result in a lethal event. Thus, irradiation results in a metabolically viable but noncontinuously proliferating cell. The cells were admixed with HBSS alone (serving as a non-adjuvant killed cell control vaccine), or with HBSS containing various doses of homogeneous recombinant Val-terminal human TNF-α alone or TNF-α plus IFN-γ. The mixture was injected intradermally into the posterior ventral region at five sites. Controls also included TNF without tumor cells, injections of HBSS alone (without killed 2237 cells), and FK565, a dimuramyl dipeptide derivative representing a known adjuvant as a positive control. Primary immunization with 2237 cells and TNF-α occurred on day 1; TNF-α was administered intraperitoneally alone on days 2 and 3. Secondary intradermal immunization occurred on day 11 with the same number of killed cells. When IFN-γ was used with TNF-α, IFN-γ administrations accompanied the TNF-α administration and further, IFN-γ, TNF-α or IFN-γ plus TNF-α were administered intraperitoneally on days 12 and 13. Five days after the second immunization the animals' footpads were injected with live 2237 cells. 48, 74 and 81 days later the tumors that had developed were measured by calipers in two dimensions. Numerous control animals had died by the last measurement day. […] Tumor volume was determined using the formula for a prolated sphere using the two dimensions previously measured. The formula is tumor volume (cm^3) equals ½ A×B^2; where A equals the larger tumor diameter and B equals the smaller tumor diameter.

[4] = tested on: 2237 cells; assay: Direct cytotoxic effect on 2237 cells; format: cell-based
From the text: This is not especially relevant in the context of the foregoing experiments because the tumor cells were not injected into the animals until 2 days after they had last been exposed to cytokines.

[5] = 0.1 μg per animal with killed 2237 cell vaccine
[6] = 1 μg per animal with killed 2237 cell vaccine
[7] = 5 μg per animal with killed 2237 cell vaccine
[8] = 5 × 10^4 units per animal with killed 2237 cell vaccine
[9] = 500 μg per animal with killed 2237 cell vaccine

TNF-α
Stimulation of the development of cytotoxic T cells [1]: able to stimulate the development of cytotoxic T cells | Production of antibody (IgG) against BSA [2]: in a dose-dependent manner augmented | Serum antibody activity after injection of TNF alone ([2]; control, TNF alone): did not induce serum antibody activity | Tumor Volume Day 48 [3, 5]: 0 cm^3 | Tumor Volume Day 74 [3, 5]: 0 cm^3 | Tumor Volume Day 81 [3, 5]: 0 cm^3 | Fate of the tumor that had developed in one animal ([3]; 1 μg per animal group, footnote to Day 48 value): *The tumor that had developed in one animal in this group regressed before the end of the study. | Tumor Volume Day 48 [3, 6]: 0.157* cm^3 | Tumor Volume Day 74 [3, 6]: 0 cm^3 | Tumor Volume Day 81 [3, 6]: 0 cm^3 | Tumor Volume Day 48 [3, 7]: 0 cm^3 | Tumor Volume Day 74 [3, 7]: 0 cm^3 | Tumor Volume Day 81 [3, 7]: 0 cm^3 | Direct cytotoxic effect on 2237 cells [4]: Neither TNF-α nor IFN-γ have any significant direct cytotoxic effect

IFN-γ: IFN-γ (γ-interferon) lymphokine given with or without TNF-α
Tumor Volume Day 48 [3, 8]: 0 cm^3 | Tumor Volume Day 74 [3, 8]: 0 cm^3 | Tumor Volume Day 81 [3, 8]: 0 cm^3

CCCCCCC(=O)N[C@H](CCC(=O)N[C@@H](CCC[C@@H](N)C(=O)O)C(=O)N[C@H](C)C(=O)O)C(=O)O [FK565, reference compound]
Tumor Volume Day 48 [3, 9]: 0 cm^3 | Tumor Volume Day 74 [3, 9]: 0 cm^3 | Tumor Volume Day 81 [3, 9]: 0 cm^3

maleic divinyl ether [MVE-2, reference compound]
Production of antibody (IgG) against BSA [2]: in a dose-dependent manner augmented

B1: IFN-γ: IFN-γ (γ-interferon) lymphokine given with or without TNF-α (protein, UniProt P01579 24-161, looked up)
Interferon gamma: QDPYVKEAENLKKYFNAGHSDVADNGTLFLGILKNWKEESDRKIMQSQIVSFYFKLFKNFKDDQSIQKSVETIKEDMNVKFFNSNKKKRDDFEKLTNYSVTDLNVQRKAIHELIQVMAELSPAAKTGKRKRSQMLFRG
Direct cytotoxic effect on 2237 cells [4]: Neither TNF-α nor IFN-γ have any significant direct cytotoxic effect
